Results as given in paper PMC12164754, “Phosphoglycerate dehydrogenase is required for kernel development and defines a predominant serine synthesis pathway in maize” (The Plant Cell, 2025).

Experiments:
[1] = biological target: DEK20^WT (truncated DEK20, residues 1-387, substrate binding domain and nucleotide-binding domain) (maize (Zea mays)); assay: crystal structure; apo form, 3.5 Å; about 16 mg/ml DEK20^WT crystallised in sodium nitrate, sodium phosphate dibasic, ammonium sulfate, HEPES/MOPS pH 7.5, glycerol, PEG 4000; solved by molecular replacement
[2] = biological target: T1, DEK20 (phosphoglycerate dehydrogenase1, PGDH1) (Zea mays, UniProt A0A1D6DW07, S282L); assay: microscale thermophoresis (MST); format: binding
T1 construct: gene LOC103645840; recombinant His-DEK20

[3] = biological target: T2, DEK20 (phosphoglycerate dehydrogenase1, PGDH1) (Zea mays, UniProt A0A1D6DW07); assay: microscale thermophoresis (MST); format: binding
T2 construct: gene LOC103645840; recombinant His-DEK20
T2 sequence (A0A1D6DW07 1-387): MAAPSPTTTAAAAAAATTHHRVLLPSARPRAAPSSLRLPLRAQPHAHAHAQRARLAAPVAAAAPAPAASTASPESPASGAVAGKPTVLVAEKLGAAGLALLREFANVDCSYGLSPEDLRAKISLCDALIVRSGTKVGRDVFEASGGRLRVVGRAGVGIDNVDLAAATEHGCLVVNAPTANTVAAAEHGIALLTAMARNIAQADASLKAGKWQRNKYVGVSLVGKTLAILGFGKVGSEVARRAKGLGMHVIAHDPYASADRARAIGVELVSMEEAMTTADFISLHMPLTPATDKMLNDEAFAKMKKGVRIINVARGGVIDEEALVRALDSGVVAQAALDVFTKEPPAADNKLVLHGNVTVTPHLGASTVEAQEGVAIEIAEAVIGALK

T1 sequence (A0A1D6DW07 entry or part of it S282L): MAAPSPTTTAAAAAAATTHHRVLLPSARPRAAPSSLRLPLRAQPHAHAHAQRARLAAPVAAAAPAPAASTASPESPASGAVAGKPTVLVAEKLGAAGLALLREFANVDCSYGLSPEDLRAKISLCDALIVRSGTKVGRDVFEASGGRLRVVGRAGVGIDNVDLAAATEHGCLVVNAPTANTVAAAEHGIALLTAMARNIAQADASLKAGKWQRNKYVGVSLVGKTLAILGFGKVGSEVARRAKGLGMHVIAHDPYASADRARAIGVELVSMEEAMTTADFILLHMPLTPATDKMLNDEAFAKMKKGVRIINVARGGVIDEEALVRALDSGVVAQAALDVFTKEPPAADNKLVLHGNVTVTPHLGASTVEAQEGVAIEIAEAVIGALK

Compound	stoichiometry N [1]	Kd [2]	Kd [3]
DEK20^WT (truncated DEK20, residues 1-387, substrate binding domain and nucleotide-binding domain) (domain or fragment)	2	–	–
NC(=O)c1ccc[n+]([C@@H]2O[C@H](COP(=O)([O-])OP(=O)(O)OC[C@H]3O[C@@H](n4cnc5c(N)ncnc54)[C@H](O)[C@@H]3O)[C@@H](O)[C@H]2O)c1 [NAD^+]	–	8.11 µM	32.4 µM
